Measurements taken from ChEMBL document CHEMBL4513145, “CO-ADD screening of Biotechnology Research Centre (C.R.B.t) (Algeria) compounds”.
In brackets after ≈: the same amount, converted by molar mass.

Assays:
[1] = tested on: Staphylococcus aureus; assay: microbe, parasite or virus in culture; settings: ATCC 43300, 18 h, ASSAY_TEST Inhibition of Bacterial Growth, detection method Absorption (OD600), MEDIA CAMHB, plate type 384well, NBS, CORNING #3640
Description: Antibacterial activity against Staphylococcus aureus MRSA ATCC 43300 (CO-ADD:GP_020); MIC in CAMBH media, using NBS plates, by OD(600)

[2] = tested on: HEK293; assay: cells; assay type: functional; settings: Homo sapiens, ATCC CRL1573, HEK293; ASSAY_TEST Inhibition of Cell Viability; detection method Resazurin; Fluorescence (ex560/em590); MEDIA DMEM with 10% FBS; plate type 384well; TC; CORNING #3712; time 18 hr
[3] = tested on: Candida albicans; assay: microbe, parasite or virus in culture; settings: ATCC 90028, ASSAY_TEST Inhibition of Fungal Growth, detection method Absorption (OD530), plate type 384well, NBS, CORNING #3640
Description: Antifungal activity against Candida albicans ATCC 90028 (CO-ADD:FG_001); MIC in YNB media using NBS plates, by OD630

[4] = tested on: Cryptococcus neoformans
Description: Antifungal activity against Cryptococcus neoformans H99 ATCC 208821 (CO-ADD:FG_002); MIC in YNB media using NBS plates, by Resazurin OD(600-570)

[5] = tested on: Acinetobacter baumannii; assay: microbe, parasite or virus in culture; settings: ATCC 19606, 18 h, ASSAY_TEST Inhibition of Bacterial Growth, detection method Absorption (OD600), MEDIA CAMHB, plate type 384well, NBS, CORNING #3640
Description: Antibacterial activity against Acinetobacter baumannii ATCC 19606 (CO-ADD:GN_034); MIC in CAMBH media using NBS plates, by OD600

[6] = tested on: Pseudomonas aeruginosa; assay: microbe, parasite or virus in culture; settings: ATCC 27853, 18 h, ASSAY_TEST Inhibition of Bacterial Growth, detection method Absorption (OD600), MEDIA CAMHB, plate type 384well, NBS, CORNING #3640
Description: Antibacterial activity against Pseudomonas aeruginosa ATCC 27853 (CO-ADD:GN_042); MIC in CAMBH media using NBS plates, by OD(600)

[7] = tested on: Escherichia coli; assay: microbe, parasite or virus in culture; settings: ATCC 25922, 18 h, ASSAY_TEST Inhibition of Bacterial Growth, detection method Absorption (OD600), MEDIA CAMHB, plate type 384well, NBS, CORNING #3640
Description: Antibacterial activity against Escherichia coli ATCC 25922 (CO-ADD:GN_001); MIC in CAMBH media using NBS plates, by OD(600)

[8] = tested on: Klebsiella pneumoniae; assay: microbe, parasite or virus in culture; settings: ATCC 700603, 18 h, ASSAY_TEST Inhibition of Bacterial Growth, detection method Absorption (OD600), MEDIA CAMHB, plate type 384well, NBS, CORNING #3640
Description: Antibacterial activity against Klebsiella pneumoniae MDR ATCC 70063 (CO-ADD:GN_003); MIC in CAMBH media using NBS plates, by OD(600)

Row | SMILES | MIC [1] [µg/mL] | CC50 [2] [µg/mL] | MIC [3] [µg/mL] | MIC [4] [µg/mL] | MIC [5] [µg/mL] | MIC [6] [µg/mL] | MIC [7] [µg/mL] | MIC [8] [µg/mL]
1 | O=C(OCc1ccccc1)N1CC(Cc2ccccc2)C(O)O1 (stereo not given) | > 32 | > 32 | > 32 | > 32 | > 32 | > 32 | > 32 | > 32
2 | CC1CN(S(=O)(=O)c2ccc([N+](=O)[O-])cc2)N(C(=O)OC(C)(C)C)C1=O (stereo not given) | 32 (≈ 83 µM) | 6.8 (≈ 17.6 µM) | > 32 | > 32 | > 32 | > 32 | > 32 | > 32
3 | CCCCCCCC1CN(C(=O)OCc2ccccc2)OC1O (stereo not given) | > 32 | > 32 | > 32 | > 32 | > 32 | > 32 | > 32 | > 32
4 | CC1CN(C(=O)OCc2ccccc2)OC1O (stereo not given) | > 32 | > 32 | > 32 | 32 (≈ 135 µM) | > 32 | > 32 | > 32 | > 32
5 | CC1CN(S(=O)(=O)c2ccc([N+](=O)[O-])cc2)N(C(=O)OC(C)(C)C)C1O (stereo not given) | > 32 | 6.19 (≈ 16 µM) | > 32 | > 32 | > 32 | > 32 | > 32 | > 32
